Source: paper PMC8286840, “Identifying SARS-CoV-2 antiviral compounds by screening for small molecule inhibitors of Nsp3 papain-like protease” (Biochemical Journal, 2021)
Counter-ions that a name gives are not always drawn. Like-named read-outs stand apart in the source and are kept apart here. Where no end group is shown, it is not given here.

Columns and labels:
[1] = biological target: T1, SARS-CoV-2 PLpro (nsp3 1564–1878) (Severe acute respiratory syndrome coronavirus 2, UniProt P0DTD1); assay: biochemical; set-up: FRET-quenched peptide (Pro3) cleavage by PLpro, 10 min pre-incubation, slope over 20 min, normalised to no-compound control; details: read-out: % of control remaining
[2] = biological target: T1, SARS-CoV-2 PLpro (nsp3 1564–1878); assay: biochemical; set-up: FRET-quenched peptide (Pro3) cleavage by PLpro, 10 min pre-incubation, slope over 20 min, normalised to no-compound control; details: read-out: % of control remaining; remark: listed apart in the source

CN1[C@@H]2CC[C@H]1C[C@@H](OC(=O)C(CO)c1ccccc1)C2 (stereo partly drawn) [Atropine sulfate]
remaining activity at 1.25 µM ([1]; Well no.=197, low concentration screen): 99.5% | remaining activity at 1.25 µM ([1]; Well no.=3238, low concentration screen): 102% | remaining activity at 3.75 µM ([2]; Well no.=3238, high concentration screen): 102%

COC(=O)C[C@](O)(CCC(C)(C)O)C(=O)O[C@@H]1C(OC)=C[C@]23CCCN2CCc2cc4c(cc2[C@H]13)OCO4 [Harringtonine]
remaining activity at 1.25 µM ([1]; Well no.=3615, low concentration screen): 105% | remaining activity at 3.75 µM ([2]; Well no.=3615, high concentration screen): 103%

CCC(=O)c1ccc2c(c1)N(CCCN(C)C)c1ccccc1S2 [Propionylpromazine hydrochloride]
remaining activity at 1.25 µM ([1]; Well no.=1301, low concentration screen): 103% | remaining activity at 3.75 µM ([2]; Well no.=1301, high concentration screen): 106%

CCCC[N+]1(C)[C@H]2CC(OC(=O)C(CO)c3ccccc3)C[C@H]1[C@H]1O[C@H]12 (stereo partly drawn) [Scopolamine N-butyl]
remaining activity at 1.25 µM ([1]; Well no.=2243, low concentration screen): 95% | remaining activity at 3.75 µM ([2]; Well no.=2243, high concentration screen): 91.9%

OC[C@H]1O[C@@H](Oc2ccc(O)cc2)[C@H](O)[C@@H](O)[C@@H]1O [Arbutin]
remaining activity at 1.25 µM ([1]; Well no.=3478, low concentration screen): 103% | remaining activity at 3.75 µM ([2]; Well no.=3478, high concentration screen): 101%

CC(N)C12CC3CC(CC(C3)C1)C2 (stereo not drawn) [Rimantadine]
remaining activity at 1.25 µM ([1]; Well no.=2203, low concentration screen): 99.7% | remaining activity at 3.75 µM ([2]; Well no.=2203, high concentration screen): 99.8%

DRVYVHPF [Angiotensin II 5-valine]
remaining activity at 1.25 µM ([1]; Well no.=7899, low concentration screen): 98.8% | remaining activity at 1.25 µM ([1]; Well no.=7986, low concentration screen): 90.3% | remaining activity at 3.75 µM ([2]; Well no.=7899, high concentration screen): 97.5% | remaining activity at 3.75 µM ([2]; Well no.=7986, high concentration screen): 89.7%

CCCCCCCCC#CCC#CCC#CCCCC(=O)O [5,8,11-Eicosatriynoic acid]
remaining activity at 1.25 µM ([1]; Well no.=411, low concentration screen): 101% | remaining activity at 1.25 µM ([1]; Well no.=4470, low concentration screen): 96.8% | remaining activity at 3.75 µM ([2]; Well no.=411, high concentration screen): 97.5% | remaining activity at 3.75 µM ([2]; Well no.=4470, high concentration screen): 92.3%

CN(C)CCC=C1c2ccccc2C=Cc2ccccc21 [Cyclobenzaprine hydrochloride]
remaining activity at 1.25 µM ([1]; Well no.=320, low concentration screen): 92.5% | remaining activity at 3.75 µM ([2]; Well no.=320, high concentration screen): 93.2%

CCC(C(=O)O)C(=O)O [Ethylmalonic acid]
remaining activity at 1.25 µM ([1]; Well no.=6875, low concentration screen): 94.5% | remaining activity at 3.75 µM ([2]; Well no.=6875, high concentration screen): 93.4%

N[C@@H](Cn1cc(I)c(=O)[nH]c1=O)C(=O)O [S-5-Iodowillardiine]
remaining activity at 1.25 µM ([1]; Well no.=1340, low concentration screen): 102% | remaining activity at 3.75 µM ([2]; Well no.=1340, high concentration screen): 99.5%

COc1c2c3c4c(c(OC)c(=O)c5c(O)cc(OC)c(c6c(OC)cc(O)c(c1=O)c63)c54)[C@@H](C(C)=O)[C@@](C)(O)C2 [Hypocrellin A]
remaining activity at 1.25 µM ([1]; Well no.=3645, low concentration screen): 94% | remaining activity at 3.75 µM ([2]; Well no.=3645, high concentration screen): 92.4%

Nc1nc(Nc2ccc(S(N)(=O)=O)cc2)nn1C(=O)c1c(F)cccc1F [JNJ-7706621]
remaining activity at 1.25 µM ([1]; Well no.=8260, low concentration screen): 91.9% | remaining activity at 3.75 µM ([2]; Well no.=8260, high concentration screen): 92%

C[C@@H](c1nc(-c2ccc(C#N)cc2)cs1)[C@](O)(Cn1cncn1)c1ccc(F)cc1F [4-{2-[(1R,2R)-2-(2,4-difluorophenyl)-2-hydroxy-1-methyl-3-(1H-1,2,4-triazol-1-yl)propyl]-1,3-thiazol-4-yl}benzonitrile]
remaining activity at 1.25 µM ([1]; Well no.=5644, low concentration screen): 90.9% | remaining activity at 3.75 µM ([2]; Well no.=5644, high concentration screen): 92.4%

C/C(=C\c1ccc(C(=O)O)cc1)c1ccc2c(c1)C(C)(C)CCC2(C)C [TTNPB]
remaining activity at 1.25 µM ([1]; Well no.=1429, low concentration screen): 97.8% | remaining activity at 1.25 µM ([1]; Well no.=4436, low concentration screen): 93% | remaining activity at 3.75 µM ([2]; Well no.=1429, high concentration screen): 99.8% | remaining activity at 3.75 µM ([2]; Well no.=4436, high concentration screen): 100%

C[C@H](CCC(=O)O)[C@H]1CC[C@H]2[C@@H]3[C@H](O)C[C@@H]4C[C@H](O)CC[C@]4(C)[C@H]3C[C@H](O)[C@]12C [Cholic acid]
remaining activity at 1.25 µM ([1]; Well no.=6201, low concentration screen): 105% | remaining activity at 1.25 µM ([1]; Well no.=8202, low concentration screen): 96.6% | remaining activity at 3.75 µM ([2]; Well no.=6201, high concentration screen): 105% | remaining activity at 3.75 µM ([2]; Well no.=8202, high concentration screen): 94.8%

COc1ccccc1N1CCN(CCCCNC(=O)c2ccc3ccccc3c2)CC1 [BP897]
remaining activity at 1.25 µM ([1]; Well no.=6013, low concentration screen): 106% | remaining activity at 3.75 µM ([2]; Well no.=6013, high concentration screen): 98.6%

Brc1c(NC2=NCCN2)ccc2nccnc12 [UK 14,304 (tartrate)]
remaining activity at 1.25 µM ([1]; Well no.=6572, low concentration screen): 98.5% | remaining activity at 3.75 µM ([2]; Well no.=6572, high concentration screen): 102%

CC(Cc1ccc(O)cc1)NCC(O)c1cc(O)cc(O)c1 (stereo not drawn) [Fenoterol hydrobromide]
remaining activity at 1.25 µM ([1]; Well no.=705, low concentration screen): 104% | remaining activity at 3.75 µM ([2]; Well no.=705, high concentration screen): 100%

CCC(C)C(=O)C(=O)O (stereo not drawn) [3-Methyl-2-oxovaleric acid]
remaining activity at 1.25 µM ([1]; Well no.=6977, low concentration screen): 100% | remaining activity at 3.75 µM ([2]; Well no.=6977, high concentration screen): 101%

N[C@@H](Cc1cnc[nH]1)C(=O)N[C@@H](Cc1cnc[nH]1)C(=O)N[C@@H](Cc1cnc[nH]1)C(=O)N[C@@H](Cc1cnc[nH]1)C(=O)N[C@@H](Cc1cnc[nH]1)C(=O)N[C@@H](Cc1cnc[nH]1)C(=O)O [Hexa-His]
remaining activity at 1.25 µM ([1]; Well no.=8312, low concentration screen): 94.5% | remaining activity at 3.75 µM ([2]; Well no.=8312, high concentration screen): 96.4%

CCC1C(C)=NN=C(c2ccc(OC)c(OC)c2)c2cc(OC)c(OC)cc21 (stereo not drawn) [Tofisopam]
remaining activity at 1.25 µM ([1]; Well no.=5780, low concentration screen): 103% | remaining activity at 3.75 µM ([2]; Well no.=5780, high concentration screen): 103%

CC1(C)CCC(C)(C)c2cc(NC(=O)c3ccc(C(=O)O)cc3)ccc21 [Tamibarotene]
remaining activity at 1.25 µM ([1]; Well no.=8108, low concentration screen): 97.6% | remaining activity at 3.75 µM ([2]; Well no.=8108, high concentration screen): 101%

CC1(C)C=Cc2c(ccc3c2OC[C@@H](c2ccc(O)cc2O)C3)O1 [4-[(3R)-8,8-dimethyl-3,4-dihydro-2H,8H-pyrano[2,3-f]chromen-3-yl]-1,3-benzenediol]
remaining activity at 1.25 µM ([1]; Well no.=5793, low concentration screen): 100% | remaining activity at 3.75 µM ([2]; Well no.=5793, high concentration screen): 104%

O[C@H]1[C@H]2c3cc4c(cc3CN3CCC(=C[C@@H]1O)[C@H]23)OCO4 [Lycorine]
remaining activity at 1.25 µM ([1]; Well no.=3379, low concentration screen): 99.9% | remaining activity at 3.75 µM ([2]; Well no.=3379, high concentration screen): 99.5%

O=C(Oc1ccc([N+](=O)[O-])cc1)N1CCC(C(O)(c2ccc3c(c2)OCO3)c2ccc3c(c2)OCO3)CC1 [JZL184]
remaining activity at 1.25 µM ([1]; Well no.=8838, low concentration screen): 92.7% | remaining activity at 3.75 µM ([2]; Well no.=8838, high concentration screen): 91.1%

CC(C)(Cc1ccc2ccccc2c1)NC[C@@H](O)COc1cccc(Cl)c1C#N [NPS-2143 (hydrochloride)]
remaining activity at 1.25 µM ([1]; Well no.=7051, low concentration screen): 107% | remaining activity at 3.75 µM ([2]; Well no.=7051, high concentration screen): 105%

N[C@@H]1C=CC=C(C(=O)O)C1 [Gabaculine hydrochloride]
remaining activity at 1.25 µM ([1]; Well no.=13, low concentration screen): 105% | remaining activity at 3.75 µM ([2]; Well no.=13, high concentration screen): 105%

O/N=C/c1cc[n+](C[n+]2ccc(/C=N/O)cc2)cc1 [MMB-4]
remaining activity at 1.25 µM [1]: 95.4% | remaining activity at 3.75 µM [2]: 93.7%

CSc1ccc2c(c1)C(N1CCN(C)CC1)Cc1ccccc1S2 (stereo not drawn) [Methiothepin mesylate]
remaining activity at 1.25 µM ([1]; Well no.=801, low concentration screen): 99.9% | remaining activity at 3.75 µM ([2]; Well no.=801, high concentration screen): 101%

CN1C(C)(C)CCCC1(C)C [Pempidine tartrate]
remaining activity at 1.25 µM ([1]; Well no.=1052, low concentration screen): 94% | remaining activity at 3.75 µM ([2]; Well no.=1052, high concentration screen): 95%

O=C(O)CN(CCN(CC(=O)O)Cc1ccccc1O)Cc1ccccc1O
remaining activity at 1.25 µM ([1]; Well no.=3846, low concentration screen): 106% | remaining activity at 3.75 µM ([2]; Well no.=3846, high concentration screen): 103%

Cc1ccc(O)c([C@H](CCN(C(C)C)C(C)C)c2ccccc2)c1 [Tolterodine tartrate (Detrol LA)]
remaining activity at 1.25 µM ([1]; Well no.=4918, low concentration screen): 98% | remaining activity at 3.75 µM ([2]; Well no.=4918, high concentration screen): 94.6%
